# Assay results published in patent publication US11434212B2, “Bicyclic compound as a caspase inhibitor” (CHIA TAI TIANQING PHARMACEUTICAL GROUP CO., LTD., priority 2017, dated 2022).
# “Also recorded” adds a separate entry of the source.
# Experiments:
# [1] = system: CCl4-induced chronic liver fibrosis model; assay: Pharmacodynamic study in CCl4-induced chronic liver fibrosis model; format: in vivo, male C57BL/6 mice; design: Total score of liver injury / Ballooning change score: scale not given here; conditions: for Ballooning change score / Inflammatory cell infiltration / Percentage of liver fibrosis / Total score of liver injury: p.o., bid, 28 days, mean ± sem
# Method: The therapeutic effects of the test compound IDN-6556 and the compound of Example 1 in the CCl4-induced chronic liver fibrosis model of male C57BL/6 mice were tested.
# Male C57BL/6 mice were randomly divided into 7 groups: pseudo model group (group 1), model group (group 2, solvent p.o., q.d), IDN-6556 (group 3, 3 mg/kg, p.o., bid), IDN-6556 (group 4, 10 mg/kg, p.o., bid), Example 1 (group 5, 3 mg/kg, p.o., bid), Example 1 (group 6, 10 mg/kg, p.o., bid)), Example 1 (group 7, 20 mg/kg, p.o., bid). CCl4 was formulated into a CCl4-olive oil mixed solution according to the doses by using olive oil, modeling is performed by orally administration three times a week for 4 weeks; and the pseudo model group was orally administered with the same volume of olive oil alone. Compounds were orally administrated from the day of modeling, twice a day for 28 days, while the pseudo model group and the model group were orally administered with an equal volume of drug solvent. On the next day after the last administration, the animals were fasted for 6 hours, followed by euthanizing, and the livers were collected. Liver tissues were fixed in 10% formalin solution for histopathological analysis.
# [2] = Mouse pharmacokinetic study in plasma and liver after oral administration; format: in vivo, male C57BL/6J mice
# Source text: This experiment intended to investigate the pharmacokinetics in plasma and liver of male C57BL/6J mice after oral administration of the compounds.
# Mice were randomly divided into three groups (3 male mice per group). The compound was formulated into the specified formulation. Oral formulations may be clear or uniform suspensions. Animals were intragastrically administered with a given dose of the preparation, respectively.
# Whole blood samples were collected from animals through jugular vein puncture at 3 time points of 30 minutes, 2 hours, and 6 hours after administration, approximately 25 μL per sample; while the liver was collected at each time point.
# The plasma samples were added to centrifuge tubes containing anticoagulant, and centrifuged at 4° C., 3000 g for 15 min, and the supernatant plasma was taken and quickly frozen on dry ice and then stored in a refrigerator at −70±10° C. until LC-MS/MS analysis was performed.
# The blood outside the liver was sopped up with absorbent paper, and the weight of the liver was weighed, and then placed in liquid nitrogen to freeze. MeOH/15 mM PBS (1:2) at a volume-weight ratio of 1:5 was added thereto, and then the homogenization was performed at 14000 rpm for 2 minutes. It was then stored in a refrigerator at −70±10° C. until LC-MS/MS analysis was performed.
# The plasma drug concentration data for the compounds were processed with the non-compartment model using WinNonlin™ Version 6.3.0 (Pharsight, Mountain View, Calif.) pharmacokinetic software. The maximal concentration (Cmax), maximal concentration time (Tmax) and quantitative end time were directly obtained from the plasma concentration-time chart.
# The following pharmacokinetic parameters were calculated by using logarithmic linear trapezoidal method: elimination phase half-life (T1/2); the in vivo mean residence time of the drug from point 0 to the last time point (MRT0-last); the in vivo mean residence time of the drug from point 0 to infinite time (MRT0-ifn); the area under time-plasma concentration curve from point 0 to the last time point (AUC0-last); the area under time-plasma concentration curve from point 0 to infinite time (AUC0-inf).
# For individual plasma concentrations less than BQL, the one occurred before Tmax was calculated as 0, and the one occurred after Tmax was directly excluded. All parameters and ratios were reported in the forms of three significant digits.
# The pharmacokinetic parameters of this experiment were calculated according to the theoretical blood collection times and the theoretical administration concentrations in the protocol. The deviations between the actual administration concentrations and the theoretical concentrations were within the range of ±20%. The deviations between the actual blood collection times and the theoretical blood collection times were in conformity with the relevant SOP (the points within 1 hour after administration were within the range of ±1 min, and the others were within 5% of the theoretical time).
# Caspase-3 = target: T1, Caspase-3 (Homo sapiens, UniProt P42574); assay: In vitro inhibitory activity on Caspase-3 (BioVision Caspase-3 Inhibitor Screening Kit); format: biochemical; conditions: fluorogenic substrate 50 μM; test concentrations 1000 nM to 0.32 nM
# T1 construct: purchased BioVision K153-100
# T1 sequence (P42574 29-175 limits assumed): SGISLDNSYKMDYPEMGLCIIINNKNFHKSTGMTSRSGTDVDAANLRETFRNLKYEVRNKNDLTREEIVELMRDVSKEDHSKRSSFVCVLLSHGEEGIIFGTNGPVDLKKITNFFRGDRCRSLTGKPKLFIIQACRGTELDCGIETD
# T1 sequence (P42574 176-277 limits assumed): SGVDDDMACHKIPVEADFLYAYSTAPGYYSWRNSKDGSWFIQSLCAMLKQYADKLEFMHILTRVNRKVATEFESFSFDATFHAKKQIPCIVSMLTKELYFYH
# Method: (§1) Caspase Inhibitor Screening Kit for BioVision was used in this experiment to test the inhibitory activity of the test compounds on Caspase.
# Caspase-3 Inhibitor Screening Kit (BioVision #K153-100)
# (§2) Note: Each caspase enzymatic experiment uses the reagents in corresponding kit thereof. Each enzyme was dissolved in 550 μl of the corresponding 2× reaction buffer, sub-packed and stored at −80° C., respectively.
# (§3) 1) The compound was diluted to a 200*test concentration with DMSO via the multiple dilution, then to a 2*test concentration with ddH2O, and added to a 384-well experimental plate at 12.5 μl per well. Test compounds and control compounds were tested at 6 concentration points, test concentrations ranging from 1000 nM to 0.32 nM. The ddH2O containing 1% DMSO was added to the 0% inhibition control well, and a high concentration of the control compound was added to the 100% inhibition control well (final concentration: 5 μM).
# (§4) 2) 2× reaction buffer containing 10 mM DTT was prepared. The enzyme caspase stock solution was diluted 5-fold with 2× reaction buffer containing 10 mM DTT and added to a 384-well experimental plate at 6.25 μl per well. After being mixed, the enzyme and compounds were incubated at 37° C. for 30 minutes.
# (§5) 3) The fluorogenic substrate of the enzyme caspase was diluted 5-fold with 2× reaction buffer containing 10 mM DTT, and then added to a 384-well experimental plate at 6.25 μl per well. The total reaction volume was 25 μl, the final concentration of the substrate was 50 μM, and the final concentration of DMSO was 0.5%. After the substrate was added, the 384-well experimental plate was incubated at 37° C. for 30 minutes.
# (§6) 4) The fluorescence intensity (excitation light wavelength was 400 nm, emission light wavelength was 505 nm) was measured by using a multi-function microplate reader. Fluorescence intensity was used to calculate the inhibitory effect of the compounds on Caspase. GraphPad Prism software was used for fitting compound inhibition curves and calculating IC50 values.
# Caspase-8 = target: T2, Caspase-8 (Homo sapiens, UniProt Q14790); assay: In vitro inhibitory activity on Caspase-8 (BioVision Caspase-8 Inhibitor Screening Kit); format: biochemical; conditions: fluorogenic substrate 50 μM; test concentrations 1000 nM to 0.32 nM
# T2 construct: purchased BioVision K158-100
# Method: as §1
# Caspase-8 Inhibitor Screening Kit (BioVision #K158-100)
# as §2, §3, §4, §5, §6
# Caspase-1 = target: T3, Caspase-1 (Homo sapiens, UniProt P29466); assay: In vitro inhibitory activity on Caspase-1 (BioVision Caspase-1 Inhibitor Screening Kit); format: biochemical; conditions: fluorogenic substrate 50 μM; test concentrations 1000 nM to 0.32 nM
# T3 construct: purchased BioVision K151-100
# T3 sequence (P29466 120-297 limits assumed): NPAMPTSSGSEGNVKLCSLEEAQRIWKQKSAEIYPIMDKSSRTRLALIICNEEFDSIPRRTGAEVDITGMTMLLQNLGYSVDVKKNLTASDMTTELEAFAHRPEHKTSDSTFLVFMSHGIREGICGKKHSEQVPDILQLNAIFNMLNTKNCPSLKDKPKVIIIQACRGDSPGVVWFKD
# T3 sequence (P29466 317-404 limits assumed): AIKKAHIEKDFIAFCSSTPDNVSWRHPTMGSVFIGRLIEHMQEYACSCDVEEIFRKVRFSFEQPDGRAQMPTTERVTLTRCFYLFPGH
# Method: as §1
# Caspase-1 Inhibitor Screening Kit (BioVision #K151-100)
# as §2, §3, §4, §5, §6
# [3] = different doses, oral twice a day for 28 days, vs model group
# [4] = oral administration, 0.5-6 h samples
# T2 sequence (Q14790 217-374 limits assumed): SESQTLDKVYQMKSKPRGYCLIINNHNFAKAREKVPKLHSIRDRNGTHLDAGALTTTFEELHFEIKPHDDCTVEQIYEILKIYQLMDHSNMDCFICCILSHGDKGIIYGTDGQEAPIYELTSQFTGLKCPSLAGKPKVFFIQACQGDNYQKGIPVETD
# T2 sequence (Q14790 385-479 limits assumed): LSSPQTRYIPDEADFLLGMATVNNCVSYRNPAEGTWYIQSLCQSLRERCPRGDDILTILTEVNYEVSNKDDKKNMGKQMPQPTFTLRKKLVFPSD
smiles,measurement,setting,value
"C[C@H](NC(=O)c1cc(-c2ccccc2Cl)on1)C(=O)N[C@@H](CC(=O)O)C(=O)COc1c(F)c(F)cc(F)c1F [Example 1, (S)-3-((S)-2-(5-(2-chlorophenyl)isoxazol-3-carboxamido)propionamido)-4-oxo-5-(2,3,5,6-tetrafluorophenoxy)pentanoic Acid]",Ballooning change score,[1]; 3 mg/kg,0.00 ± 0.00
same,Inflammatory cell infiltration,[1]; 3 mg/kg,1.13 ± 0.06
same,Percentage of liver fibrosis,[1]; 3 mg/kg,1.61 ± 0.05^$$ %
same,Total score of liver injury,[1]; 3 mg/kg,1.13 ± 0.06
same,Ballooning change score,[1]; 10 mg/kg,0.00 ± 0.00
same,Inflammatory cell infiltration,[1]; 10 mg/kg,1.15 ± 0.07
same,Percentage of liver fibrosis,[1]; 10 mg/kg,1.62 ± 0.07^$ %
same,Total score of liver injury,[1]; 10 mg/kg,1.20 ± 0.07
same,Ballooning change score,[1]; 20 mg/kg,0.00 ± 0.00
same,Inflammatory cell infiltration,[1]; 20 mg/kg,1.10 ± 0.04
same,Percentage of liver fibrosis,[1]; 20 mg/kg,1.69 ± 0.10%
same,Total score of liver injury,[1]; 20 mg/kg,1.12 ± 0.04
same,Effect on CCl4-induced liver tissue damage (in words),[1]; [3],significantly improve; also recorded: significantly inhibit
same,Inhibitory effect on liver fibrosis (in words),[1]; [3],significantly inhibited; also recorded: significant inhibitory effect
same,Liver drug concentration,[2]; 0.5 h after oral (intragastric) administration,46440 nmol/kg
same,Liver drug concentration,[2]; 2 h after oral (intragastric) administration,3126 nmol/kg
same,Liver drug concentration,[2]; 6 h after oral (intragastric) administration,3252 nmol/kg
same,concentration at 0.5 h,"[2]; male, C57BL/6J, plasma, 0.5 h after oral (intragastric) administration, read-out: Plasma drug concentration",2520 nM
same,concentration at 2 h,"[2]; male, C57BL/6J, plasma, 2 h after oral (intragastric) administration, read-out: Plasma drug concentration",112 nM
same,concentration at 6 h,"[2]; male, C57BL/6J, plasma, 6 h after oral (intragastric) administration, read-out: Plasma drug concentration",12.8 nM
same,Liver exposure compared to IDN-6556,[2]; oral administration,about 5 times
same,liver drug-time curve (area),[2]; [4],48.442 µM·h
same,plasma drug-time curve (area),[2]; [4],1.795 µM·h
C[C@H](NC(=O)c1ncc(-c2ccccc2)s1)C(=O)N[C@@H](CC(=O)O)C(=O)COc1c(F)c(F)cc(F)c1F [Example 2],IC50,Caspase-3,29.6 nM
same,IC50,Caspase-8,24.6 nM
same,IC50,Caspase-1,5.3 nM
C[C@H](NC(=O)c1c[nH]c(-c2ccccc2)n1)C(=O)N[C@@H](CC(=O)O)C(=O)COc1c(F)c(F)cc(F)c1F [Example 3],IC50,Caspase-3,24 nM
same,IC50,Caspase-8,25.9 nM
same,IC50,Caspase-1,4.8 nM
C[C@H](NC(=O)c1cc(-c2ccccc2)n[nH]1)C(=O)N[C@@H](CC(=O)O)C(=O)COc1c(F)c(F)cc(F)c1F [Example 4],IC50,Caspase-3,11.4 nM
same,IC50,Caspase-8,11.7 nM
same,IC50,Caspase-1,4.1 nM
C[C@H](NC(=O)c1cc(-c2ccccc2F)n[nH]1)C(=O)N[C@@H](CC(=O)O)C(=O)COc1c(F)c(F)cc(F)c1F [Example 5],IC50,Caspase-3,13.7 nM
same,IC50,Caspase-8,16.8 nM
same,IC50,Caspase-1,3.9 nM
C[C@H](NC(=O)c1cc(-c2ccc(Cl)cc2)on1)C(=O)N[C@@H](CC(=O)O)C(=O)COc1c(F)c(F)cc(F)c1F [Example 6],IC50,Caspase-3,24.5 nM
same,IC50,Caspase-8,19.9 nM
same,IC50,Caspase-1,6 nM
